Reference: patent US20260000684A1, “CANNABINOID COMPOSITIONS AGAINST CANCER, THEIR IDENTIFICATION AND PERSONALIZATION OF CANNABIS-BASED CANCER THERAPY” (UNIVERZA V MARIBORU, priority 2022, published 2026)

Assays:
[1] = test system: CaCo2; test: Cell viability/proliferation; type: cell-based; details: FIG. 10, preliminary analysis
From the text: (§1) Example 5: In a preliminary analysis, the inventors investigated the effect of 16 cannabinoid compounds (Δ9-THCV-C3, Δ9-THCVA-C3 A, Δ9-THCA-C5 A, Δ9-THC-C5, Δ8-THC-C5, CBN-C5, CBL-C5, CBLA-C5 A, (E)-CBG-C5, (E)-CBGA-C5 A, CBD-C5, CBDV-C3, CBDVA-C3, CBDA-C5, CBC-C5, and CBCA-C5 A) on cell viability/proliferation in two colorectal carcinoma cell lines (HCT116 and CaCo2) (FIG. 10).

[2] = test system: HCT116; test: Cell viability/proliferation; type: cell-based; details: FIG. 10, preliminary analysis
From the text: as §1

[3] = test system: melanoma cell lines (COLO38 and OCM-1); details: CB2 and CB1 expressing melanoma cell lines COLO38 and OCM-1; cited from earlier work
[4] = test system: human A375, SK-MEL-28, and CHL-1 melanoma cell lines; details: A375, SK-MEL-28, CHL-1; Armstrong et al.; cited from earlier work

| Compound | effect in reducing cell viability [1] | effect in reducing cell viability [2] | viability [3] | effect of treatment on melanoma cell lines [4] |
| --- | --- | --- | --- | --- |
| CCCCCc1cc(O)c2c(c1)OC(C)(CCC=C(C)C)C=C2 (racemic) [CBC, (±)-cannabichromene] | strongest effect in reducing cell viability | strongest effect in reducing cell viability |  |  |
| CCCCCc1cc(O)c2c(c1)OC(C)(C)[C@@H]1CC=C(C)C[C@@H]21 (relative stereo) [Δ8THC, (−)-Δ^8-trans-(6aR,10aR)-Δ^8-tetrahydrocannabinol] | strongest effect in reducing cell viability | strongest effect in reducing cell viability |  |  |
| CCCCCc1cc(O)c(C/C=C(\C)CCC=C(C)C)c(O)c1 [CBG, cannabigerol] | strongest effect in reducing cell viability | strongest effect in reducing cell viability |  |  |
| CCCCCc1cc(O)c2c(c1)OC(C)(C)c1ccc(C)cc1-2 [CBN, cannabinol] | strongest effect in reducing cell viability | strongest effect in reducing cell viability |  |  |
| Cc1c(C(=O)c2cccc3ccccc23)c2cccc3c2n1[C@H](CN1CCOCC1)CO3 [WIN55,212-2] |  |  | reduce viability in a CB1/CB2-independent manner |  |
| CCCCCc1cc(O)c2c(c1)OC(C)(C)[C@@H]1CCC(C)=C[C@@H]21 [Δ9THC, Δ^9-tetrahydrocannabinol, reference compound] | strongest effect in reducing cell viability | strongest effect in reducing cell viability |  | activation of autophagy, loss of cell viability, and activation of apoptosis |
| (−)-cannabidiol [CBD, reference compound] | strongest effect in reducing cell viability | strongest effect in reducing cell viability |  |  |
